Measurements: PubChem BioAssay (NCI)
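Exposure lasted 48 hours, with cells grown in 96-well plates and compounds tested at five concentrations. GI50 is the concentration that inhibits growth by half. At the TGI there is no net growth.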

Assays:
Assay in all cases: growth of human tumour cells (NCI), 48 h
NCI-H23 lung = test system: NCI-H23 lung
NCI-H460 lung = test system: NCI-H460 lung
NCI-H522 lung = test system: NCI-H522 lung
NCI/ADR-RES ovarian = test system: NCI/ADR-RES ovarian
OVCAR-3 ovarian = test system: OVCAR-3 ovarian
OVCAR-4 ovarian = test system: OVCAR-4 ovarian
OVCAR-5 ovarian = test system: OVCAR-5 ovarian
OVCAR-8 ovarian = test system: OVCAR-8 ovarian
PC-3 prostate = test system: PC-3 prostate
RPMI-8226 leukemia = test system: RPMI-8226 leukemia
RXF 393 renal = test system: RXF 393 renal
SF-268 CNS = test system: SF-268 CNS
SF-295 CNS = test system: SF-295 CNS
SF-539 CNS = test system: SF-539 CNS
SK-MEL-2 melanoma = test system: SK-MEL-2 melanoma
SK-MEL-28 melanoma = test system: SK-MEL-28 melanoma
SK-MEL-5 melanoma = test system: SK-MEL-5 melanoma
SK-OV-3 ovarian = test system: SK-OV-3 ovarian
SN12C renal = test system: SN12C renal
SNB-19 CNS = test system: SNB-19 CNS
SNB-75 CNS = test system: SNB-75 CNS
SR leukemia = test system: SR leukemia
SW-620 colon = test system: SW-620 colon
T-47D breast = test system: T-47D breast
TK-10 renal = test system: TK-10 renal
U251 CNS = test system: U251 CNS
UACC-257 melanoma = test system: UACC-257 melanoma
UACC-62 melanoma = test system: UACC-62 melanoma
UO-31 renal = test system: UO-31 renal

COc1ccc(-c2c(-c3cc(OC)c(OC)c(OC)c3)nc3sc(C4CC4)nn23)cc1OC
TGI (NCI-H23 lung): > 100 µM
GI50 (NCI-H460 lung): 11.9 µM
TGI (NCI-H460 lung): > 100 µM
GI50 (NCI-H522 lung): 1.7 µM
TGI (NCI-H522 lung): 40 µM
GI50 (NCI/ADR-RES ovarian): 7.35 µM
TGI (NCI/ADR-RES ovarian): > 100 µM
GI50 (OVCAR-3 ovarian): 7.11 µM
TGI (OVCAR-3 ovarian): > 100 µM
GI50 (OVCAR-4 ovarian): 3.26 µM
TGI (OVCAR-4 ovarian): > 100 µM
GI50 (OVCAR-5 ovarian): 6.18 µM
TGI (OVCAR-5 ovarian): > 100 µM
GI50 (OVCAR-8 ovarian): 6.13 µM
TGI (OVCAR-8 ovarian): > 100 µM
GI50 (PC-3 prostate): 9.66 µM
TGI (PC-3 prostate): > 100 µM
GI50 (RPMI-8226 leukemia): 3 µM
TGI (RPMI-8226 leukemia): 19.6 µM
GI50 (RXF 393 renal): 5.46 µM
TGI (RXF 393 renal): 43 µM
GI50 (SF-268 CNS): 32.8 µM
TGI (SF-268 CNS): > 100 µM
GI50 (SF-295 CNS): 6.11 µM
TGI (SF-295 CNS): > 100 µM
GI50 (SF-539 CNS): 5.62 µM
TGI (SF-539 CNS): > 100 µM
GI50 (SK-MEL-2 melanoma): 7.52 µM
TGI (SK-MEL-2 melanoma): 50.8 µM
GI50 (SK-MEL-28 melanoma): 5.83 µM
TGI (SK-MEL-28 melanoma): > 100 µM
GI50 (SK-MEL-5 melanoma): 2.39 µM
TGI (SK-MEL-5 melanoma): 15 µM
GI50 (SK-OV-3 ovarian): 2.9 µM
TGI (SK-OV-3 ovarian): 69 µM
GI50 (SN12C renal): 10.7 µM
TGI (SN12C renal): > 100 µM
GI50 (SNB-19 CNS): 9.04 µM
TGI (SNB-19 CNS): > 100 µM
GI50 (SNB-75 CNS): 0.641 µM
TGI (SNB-75 CNS): > 100 µM
GI50 (SR leukemia): 3.73 µM
TGI (SR leukemia): > 100 µM
GI50 (SW-620 colon): 13.2 µM
TGI (SW-620 colon): > 100 µM
GI50 (T-47D breast): 1.51 µM
TGI (T-47D breast): 30.5 µM
GI50 (TK-10 renal): 2.6 µM
TGI (TK-10 renal): 37.3 µM
GI50 (U251 CNS): 8.15 µM
TGI (U251 CNS): > 100 µM
GI50 (UACC-257 melanoma): 9.68 µM
TGI (UACC-257 melanoma): > 100 µM
GI50 (UACC-62 melanoma): 1.94 µM
TGI (UACC-62 melanoma): 40.4 µM
GI50 (UO-31 renal): 1.42 µM
TGI (UO-31 renal): 90.5 µM
